{
  "source": "ChEMBL document CHEMBL2417526",
  "about": "“Stabilized cyclopropane analogs of the splicing inhibitor FD-895” (J Med Chem, 2013)",
  "key": {"[1]": {"tested_on": "HCT-116", "experiment": "Cytotoxicity against human HCT116 cells by MTT assay", "type": "functional, cell-based"}, "[2]": {"tested_on": "B-CLL", "experiment": "Inhibition of spliceosome-mediated splicing of DNAJB1 gene in human B-CLL cells at 0.1 uM after 4 hrs by RT-PCR analysis", "type": "cell-based"}, "[3]": {"tested_on": "B-CLL", "experiment": "Inhibition of spliceosome-mediated splicing of DNAJB1 gene in human B-CLL cells at 0.1 to 1.0 uM after 4 hrs by RT-PCR analysis", "type": "cell-based"}, "[4]": {"experiment": "Induction of apoptosis in human CLL cells by 3,3'-dihexyloxacarbocyanine iodide staining-based flow cytometry", "type": "functional, cell-based"}, "[5]": {"tested_on": "B-CLL", "experiment": "Inhibition of spliceosome-mediated splicing of DNAJB1 gene in human B-CLL cells at 10 uM after 4 hrs by RT-PCR analysis", "type": "cell-based"}},
  "note": "Active and inactive are the calls of the source. The calls are words filed in the database; no cut-off is given here.",
  "data": [
    {"compound": "CC[C@H](OC)[C@@H](C)[C@H]1O[C@@H]1[C@H](OC(C)=O)[C@H](C)/C=C/C=C(\\C)[C@H]1OC(=O)C[C@H](OC(C)=O)CC[C@@](C)(O)[C@@H](OC(C)=O)/C=C/[C@@H]1C", "values": [
      {"measurement": "IC50", "setting": "[1]", "result": 542, "unit": "nM"}
    ]},
    {"compound": "CC[C@H](OC)[C@@H](C)[C@H]1C[C@@H]1[C@@H](O)[C@H](C)/C=C/C=C(\\C)[C@H]1OC(=O)C[C@H](O)CC[C@@](C)(O)[C@@H](OC(C)=O)/C=C/[C@@H]1C", "values": [
      {"measurement": "Activity", "setting": "[2]", "result": "Active"},
      {"measurement": "Activity", "setting": "[3]", "result": "Active"},
      {"measurement": "IC50", "setting": "[1]", "result": 42.9, "unit": "nM"},
      {"measurement": "IC50", "setting": "[4]", "result": 103, "unit": "nM"}
    ]},
    {"compound": "CC[C@H](O)[C@@H](C)[C@H]1O[C@@H]1C[C@H](C)/C=C/C=C(\\C)[C@H]1OC(=O)CCCCCC/C=C/[C@@H]1C", "values": [
      {"measurement": "IC50", "setting": "[1]", "result": "> 50000", "unit": "nM"}
    ]},
    {"compound": "CC[C@H](O)[C@@H](C)[C@H]1O[C@@H]1C[C@H](C)/C=C/C=C(\\C)[C@H]1OC(=O)C[C@H](O)CC[C@@](C)(O)[C@@H](OC(C)=O)CC[C@@H]1C", "note": "[PLADIENOLIDE B]", "values": [
      {"measurement": "Activity", "setting": "[2]", "result": "Active"},
      {"measurement": "IC50", "setting": "[1]", "result": 24.8, "unit": "nM"},
      {"measurement": "IC50", "setting": "[4]", "result": 30.5, "unit": "nM"}
    ]},
    {"compound": "CC[C@H](OC)[C@@H](C)[C@H]1O[C@@H]1[C@@H](O)[C@@H](C)/C=C/C=C(\\C)[C@H]1OC(=O)C[C@H](O)CC[C@@](C)(O)[C@@H](OC(C)=O)/C=C/[C@@H]1C", "values": [
      {"measurement": "IC50", "setting": "[1]", "result": 23, "unit": "nM"},
      {"measurement": "IC50", "setting": "[4]", "result": "> 50000", "unit": "nM"}
    ]},
    {"compound": "CC[C@H](OC)[C@@H](C)[C@H]1O[C@@H]1[C@@H](O)[C@H](C)/C=C/C=C(\\C)[C@H]1OC(=O)C[C@H](O)CC[C@@](C)(O)[C@@H](OC(C)=O)/C=C/[C@@H]1C", "values": [
      {"measurement": "IC50", "setting": "[1]", "result": 0.8, "unit": "nM"}
    ]},
    {"compound": "CC[C@H](OC)[C@@H](C)[C@H]1C[C@@H]1[C@@H](O)[C@@H](C)/C=C/C=C(\\C)[C@H]1OC(=O)C[C@H](O)CC[C@@](C)(O)[C@@H](OC(C)=O)/C=C/[C@@H]1C", "values": [
      {"measurement": "IC50", "setting": "[1]", "result": 82.3, "unit": "nM"}
    ]},
    {"compound": "CC[C@H](OC)[C@@H](C)[C@H]1O[C@@H]1[C@@H](O)[C@H](C)/C=C/C=C(\\C)[C@H]1OC(=O)CCCCCC/C=C/[C@@H]1C", "values": [
      {"measurement": "IC50", "setting": "[1]", "result": "> 50000", "unit": "nM"}
    ]},
    {"compound": "CC[C@H](OC)[C@@H](C)[C@H]1O[C@@H]1[C@H](O)[C@@H](C)/C=C/C=C(\\C)[C@H]1OC(=O)C[C@H](O)CC[C@@](C)(O)[C@@H](OC(C)=O)/C=C/[C@@H]1C", "values": [
      {"measurement": "IC50", "setting": "[1]", "result": 3.7, "unit": "nM"},
      {"measurement": "IC50", "setting": "[4]", "result": 109, "unit": "nM"}
    ]},
    {"compound": "CC[C@H](O)[C@@H](C)[C@H]1O[C@@H]1C[C@H](C)/C=C/C=C(\\C)[C@H]1OC(=O)CCCCCC/C=C/[C@H]1C", "values": [
      {"measurement": "IC50", "setting": "[1]", "result": "> 50000", "unit": "nM"}
    ]},
    {"compound": "CC[C@H](OC)[C@@H](C)[C@H]1O[C@@H]1[C@H](OC(C)=O)[C@H](C)/C=C/C=C(\\C)[C@H]1OC(=O)C[C@H](O)CC[C@@](C)(O)[C@@H](OC(C)=O)/C=C/[C@@H]1C", "values": [
      {"measurement": "IC50", "setting": "[1]", "result": 142, "unit": "nM"}
    ]},
    {"compound": "CC[C@H](OC)[C@@H](C)[C@H]1O[C@@H]1[C@@H](O)[C@H](C)/C=C/C=C(\\C)[C@H]1OC(=O)C[C@H](O)CCCC/C=C/[C@@H]1C", "values": [
      {"measurement": "IC50", "setting": "[1]", "result": "> 50000", "unit": "nM"}
    ]},
    {"compound": "CC[C@H](OC)[C@@H](C)[C@H]1O[C@@H]1[C@H](O)[C@H](C)/C=C/C=C(\\C)[C@H]1OC(=O)C[C@H](O)CC[C@@](C)(O)[C@@H](OC(C)=O)/C=C/[C@@H]1C", "values": [
      {"measurement": "Activity", "setting": "[2]", "result": "Active"},
      {"measurement": "IC50", "setting": "[1]", "result": 23.5, "unit": "nM"},
      {"measurement": "IC50", "setting": "[4]", "result": 2.1, "unit": "nM"}
    ]},
    {"compound": "Nc1nc(F)nc2c1ncn2[C@@H]1O[C@H](CO)[C@@H](O)[C@@H]1O", "values": [
      {"measurement": "Activity", "setting": "[5]", "result": "inactive"}
    ]}
  ]
}
